Laboratory results published in paper PMC11411704, “Gatekeeping Activity of Collinear Ketosynthase Domains Limits Product Diversity for Engineered Type I Polyketide Synthases” (Biochemistry, 2024).

Key:
[1] = target: T1, Plt module-1 (P1 PKS module-1) (Pseudomonas fluorescens, UniProt O51827); assay: diketide formation, extender unit competition assay; type: biochemical; details: 4,5-dichloropyrrolyl-SNAC as ketide substrate; equimolar Mal-CoA and MeMal-CoA made with MatB; product diketide 6
T1 construct: gene pltB; module-1 only (KS-AT-CP) of the pyoluteorin PKS, wild-type AT; DEBS interdomain linkers used in the bimodular system; recombinant, purified; borders only in supplement
T1 sequence (O51827 1-1030 limits assumed): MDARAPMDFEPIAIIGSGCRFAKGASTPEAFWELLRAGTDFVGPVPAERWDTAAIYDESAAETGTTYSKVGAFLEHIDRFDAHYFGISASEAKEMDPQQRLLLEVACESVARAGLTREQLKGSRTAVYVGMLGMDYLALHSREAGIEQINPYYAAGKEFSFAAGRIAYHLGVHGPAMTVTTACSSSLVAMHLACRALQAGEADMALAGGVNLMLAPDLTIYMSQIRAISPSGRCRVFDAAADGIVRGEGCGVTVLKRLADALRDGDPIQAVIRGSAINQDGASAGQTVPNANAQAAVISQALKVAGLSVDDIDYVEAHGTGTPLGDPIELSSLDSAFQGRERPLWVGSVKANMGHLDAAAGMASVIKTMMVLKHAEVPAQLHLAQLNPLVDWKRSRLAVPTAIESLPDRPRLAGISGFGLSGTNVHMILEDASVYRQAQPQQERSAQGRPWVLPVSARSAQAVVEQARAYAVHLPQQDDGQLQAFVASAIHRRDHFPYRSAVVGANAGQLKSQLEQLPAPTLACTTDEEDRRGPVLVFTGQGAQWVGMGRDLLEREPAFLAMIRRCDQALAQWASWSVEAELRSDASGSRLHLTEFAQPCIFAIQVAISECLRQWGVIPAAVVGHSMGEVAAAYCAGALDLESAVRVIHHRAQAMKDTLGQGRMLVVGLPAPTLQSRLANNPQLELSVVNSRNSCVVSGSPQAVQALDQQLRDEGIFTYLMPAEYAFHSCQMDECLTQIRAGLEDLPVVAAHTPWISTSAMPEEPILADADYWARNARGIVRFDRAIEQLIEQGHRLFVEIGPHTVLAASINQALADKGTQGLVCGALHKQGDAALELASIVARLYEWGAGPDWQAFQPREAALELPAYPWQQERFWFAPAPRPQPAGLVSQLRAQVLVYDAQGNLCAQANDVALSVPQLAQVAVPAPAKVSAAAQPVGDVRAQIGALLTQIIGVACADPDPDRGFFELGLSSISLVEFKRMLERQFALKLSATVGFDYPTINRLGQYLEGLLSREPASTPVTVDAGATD

FabD = target: T2, FabD (Escherichia coli, UniProt P0AAI9); assay: carrier protein acylation under triketide pyrone production conditions; type: biochemical; details: acceptor: PKS carrier protein domains
T2 sequence (P0AAI9 2-309): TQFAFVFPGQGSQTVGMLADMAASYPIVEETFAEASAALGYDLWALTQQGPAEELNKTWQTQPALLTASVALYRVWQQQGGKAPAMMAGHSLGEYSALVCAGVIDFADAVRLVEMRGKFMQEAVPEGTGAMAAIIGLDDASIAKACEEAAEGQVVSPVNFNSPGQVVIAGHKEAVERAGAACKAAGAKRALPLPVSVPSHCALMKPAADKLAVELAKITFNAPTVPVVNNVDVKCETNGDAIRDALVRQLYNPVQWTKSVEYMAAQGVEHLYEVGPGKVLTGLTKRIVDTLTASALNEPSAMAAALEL

| Compound | diketide formation, extender unit competition assay [1] | carrier protein acylation under triketide pyrone production conditions (FabD) |
| --- | --- | --- |
| CC(C(=O)O)C(=O)SCCNC(=O)CCNC(=O)[C@H](O)C(C)(C)COP(=O)(O)OP(=O)(O)OC[C@H]1O[C@@H](n2cnc3c(N)ncnc32)[C@H](O)[C@@H]1OP(=O)(O)O (stereo partly drawn) [MeMal-CoA] | the Plt module-1 KS could efficiently use the MeMal extender unit for diketide production |  |
| C#CCC(C(=O)O)C(=O)SCCNC(=O)CCNC(=O)[C@H](O)C(C)(C)COP(=O)(O)OP(=O)(O)OC[C@H]1O[C@@H](n2cnc3c(N)ncnc32)[C@H](O)[C@@H]1OP(=O)(O)O (stereo partly drawn) [PgMal-CoA] |  | FabD was also proficient in incorporating EtMal and PgMal extender units |
| CCC(C(=O)O)C(=O)SCCNC(=O)CCNC(=O)[C@H](O)C(C)(C)COP(=O)(O)OP(=O)(O)OC[C@H]1O[C@@H](n2cnc3c(N)ncnc32)[C@H](O)[C@@H]1OP(=O)(O)O (stereo partly drawn) [EtMal-CoA] |  | FabD was also proficient in incorporating EtMal and PgMal extender units |
